The source of these data is patent US11773078B2, “Furin inhibitors” (Glaxosmithkline Intellectual Property Development Limited, priority 2018, dated 2023).

The target of test [1] is T1, furin (endogenous protease) in U20S cells (Homo sapiens, UniProt P09958).
T1 construct: the endogenous protease cleaves GFP; endogenous in cells; host or cells: U2OS cells transduced with a BacMam reporter
Put plainly: Furin cell-based assay (image-based, Golgi-targeted GFP with BMP10 furin/PCSK cleavage site).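 Note: Read-out is mean GFP fluorescence of Golgi puncta per cell by high-content imaging, retained when furin inhibited, over an eleven-point 0.00017–10 µM series, four-parameter fit.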 As to conditions: 24-hour incubation, read-out: furin golgi cell pXC50 (converted).

The target of test [2] is T2, Furin (108-574-Tev-Flag-His) enzyme (Homo sapiens, UniProt P09958).
T2 construct: Furin (108-574-Tev-Flag-His) enzyme was expressed and purified from CHO cells; TEV cleavage site (C); FLAG (C); His (C); made in house; host or cells: CHO cells
T2 sequence (P09958 108-574): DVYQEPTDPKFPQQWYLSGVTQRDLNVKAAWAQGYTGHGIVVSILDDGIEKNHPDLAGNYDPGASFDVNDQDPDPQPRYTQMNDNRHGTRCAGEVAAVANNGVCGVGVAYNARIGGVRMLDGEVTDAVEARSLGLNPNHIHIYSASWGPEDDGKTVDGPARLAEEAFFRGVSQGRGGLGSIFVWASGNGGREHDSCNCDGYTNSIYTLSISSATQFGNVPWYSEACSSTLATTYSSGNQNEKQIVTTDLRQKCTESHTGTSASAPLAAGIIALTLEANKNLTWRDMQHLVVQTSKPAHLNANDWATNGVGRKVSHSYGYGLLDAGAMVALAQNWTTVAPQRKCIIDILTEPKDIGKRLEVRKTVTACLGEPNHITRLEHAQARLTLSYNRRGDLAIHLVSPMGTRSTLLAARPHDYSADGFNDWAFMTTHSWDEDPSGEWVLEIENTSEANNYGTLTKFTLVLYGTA
Put plainly: Furin enzyme assay. The test is classed as biochemical. As to conditions: for IC50: read-out: furin enzyme pIC50 (converted). In outline: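 Compounds ran as 11-point threefold dilutions (0.00017–10 μM final) against 40 pM furin, purified from CHO cells, for 2 h at room temperature. Buffer: 100 mM HEPES pH7.5 with 1 mM CaCl2 and 0.005% Triton X-100. Envision readout. Four-parameter curve gives pXC50.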

T1 sequence (P09958 108-794): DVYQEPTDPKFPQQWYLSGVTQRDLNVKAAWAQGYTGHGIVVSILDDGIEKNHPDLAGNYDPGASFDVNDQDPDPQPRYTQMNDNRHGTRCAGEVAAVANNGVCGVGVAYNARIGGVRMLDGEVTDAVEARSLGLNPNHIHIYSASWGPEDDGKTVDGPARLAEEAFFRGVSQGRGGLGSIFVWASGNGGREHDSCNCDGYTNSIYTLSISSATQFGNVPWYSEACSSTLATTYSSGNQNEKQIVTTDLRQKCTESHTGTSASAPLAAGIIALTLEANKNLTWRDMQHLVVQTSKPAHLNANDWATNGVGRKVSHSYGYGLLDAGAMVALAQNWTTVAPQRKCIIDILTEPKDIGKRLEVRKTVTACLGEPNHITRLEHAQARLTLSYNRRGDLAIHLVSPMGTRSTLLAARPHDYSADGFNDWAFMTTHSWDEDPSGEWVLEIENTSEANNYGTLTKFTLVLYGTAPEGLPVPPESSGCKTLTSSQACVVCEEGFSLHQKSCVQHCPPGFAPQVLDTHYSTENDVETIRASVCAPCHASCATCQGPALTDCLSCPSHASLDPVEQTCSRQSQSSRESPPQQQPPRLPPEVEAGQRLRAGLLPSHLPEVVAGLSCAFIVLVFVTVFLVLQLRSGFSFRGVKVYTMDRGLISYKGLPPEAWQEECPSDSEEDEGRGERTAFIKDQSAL

Turning to `CCN1CCN(c2ncc(Oc3cc(CN4CCC(CC(=O)O)CC4)cc(-c4cc(Cl)cc(Cl)c4)n3)cn2)CC1` [Example 234, 2-(1-((2-(3,5-Dichlorophenyl)-6-((2-(4-ethylpiperazin-1-yl)pyrimidin-5-yl)oxy)pyridin-4-yl)methyl)piperidin-4-yl)acetic acid], the EC50 in test [1] was 10 nM. For the same molecule, in test [2], the “furin enzyme pIC50” value was 10.7.
For `CC(C)N1CCN(c2ncc(Oc3cc(CN4CCC(CC(=O)O)CC4)cc(-c4cc(Cl)cc(Cl)c4)n3)cn2)CC1` [Example 235, 2-(1-((2-(3,5-Dichlorophenyl)-6-((2-(4-isopropylpiperazin-1-yl)pyrimidin-5-yl)oxy)pyridin-4-yl)methyl)piperidin-4-yl)acetic acid] the same measures were 15.8 nM and 9.2.
Taken in the same sequence, the figures for `O=C(O)CC1CCN(Cc2cc(Oc3cnc(N4CCN(CCF)CC4)nc3)nc(-c3cc(Cl)cc(Cl)c3)c2)CC1` [Example 236, 2-(1-((2-(3,5-Dichlorophenyl)-6-((2-(4-(2-fluoroethyl)piperazin-1-yl)pyrimidin-5-yl)oxy)pyridin-4-yl)methyl)piperidin-4-yl)acetic acid] were 39.8 nM and 8.5.
With `CC(O)CCN1CCN(c2ncc(Oc3cc(CN4CCC(CC(=O)O)CC4)cc(-c4cc(Cl)cc(Cl)c4)n3)cn2)CC1` (centres unmarked) [Example 237, 2-(1-((2-(3,5-Dichlorophenyl)-6-((2-(4-(3-hydroxybutyl)piperazin-1-yl)pyrimidin-5-yl)oxy)pyridin-4-yl)methyl)piperidin-4-yl)acetic acid], the EC50 in test [1] is 3.16 nM. For the same molecule, the “furin enzyme pIC50” value in test [2] was found to be 8.7.
On to `CC(CCO)N1CCN(c2ncc(Oc3cc(CN4CCC(CC(=O)O)CC4)cc(-c4cc(Cl)cc(Cl)c4)n3)cn2)CC1` (centres unmarked) [Example 238, 2-(1-((2-(3,5-Dichlorophenyl)-6-((2-(4-(4-hydroxybutan-2-yl)piperazin-1-yl)pyrimidin-5-yl)oxy)pyridin-4-yl)methyl)piperidin-4-yl)acetic acid], for which the EC50 in test [1] is 10 nM. For the same molecule, in test [2], the “furin enzyme pIC50” value came out at 9.8.
`CNCCC(C)N1CCN(c2ncc(Oc3cc(CN4CCC(CC(=O)O)CC4)cc(-c4cc(Cl)cc(Cl)c4)n3)cn2)CC1` (centres unmarked) [Example 239, 2-(1-((2-(3,5-Dichlorophenyl)-6-((2-(4-(4-(methylamino)butan-2-yl)piperazin-1-yl)pyrimidin-5-yl)oxy)pyridin-4-yl)methyl)piperidin-4-yl)acetic acid]: the EC50 in test [1] was 25.1 nM. In addition, in test [2], the “furin enzyme pIC50” value came out at 8.
Taken in the same sequence, the figures for `CC(CCN(C)C)N1CCN(c2ncc(Oc3cc(CN4CCC(CC(=O)O)CC4)cc(-c4cc(Cl)cc(Cl)c4)n3)cn2)CC1` (centres unmarked) [Example 240, 2-(1-((2-(3,5-Dichlorophenyl)-6-((2-(4-(4-(dimethylamino)butan-2-yl)piperazin-1-yl)pyrimidin-5-yl)oxy)pyridin-4-yl)methyl)piperidin-4-yl)acetic acid] were 6.31 nM and 8.4.
For `CNC(=O)OCCN1CCN(c2ncc(Oc3cc(CN4CCC(CC(=O)O)CC4)cc(-c4cc(Cl)cc(Cl)c4)n3)cn2)CC1` [Example 241, 2-(1-((2-(3,5-Dichlorophenyl)-6-((2-(4-(2-((methylcarbamoyl)oxy)ethyl)piperazin-1-yl)pyrimidin-5-yl)oxy)pyridin-4-yl)methyl)piperidin-4-yl)acetic acid], in test [1], the EC50 was 63.1 nM. Also, in test [2], the “furin enzyme pIC50” value worked out at 8.6.
Taken in the same sequence, the figures for `CS(=O)(=O)CCCN1CCN(c2ccc(Oc3cc(CN4CCC(CC(=O)O)CC4)cc(-c4cc(Cl)cc(Cl)c4)n3)cn2)CC1` [Example 243, 2-(1-((2-(3,5-dichlorophenyl)-6-((6-(4-(3-(methylsulfonyl)propyl)piperazin-1-yl)pyridin-3-yl)oxy)pyridin-4-yl)methyl)piperidin-4-yl)acetic acid] were 25.1 nM and 8.7.
Taken in the same sequence, the figures for `COCCN1CCN(c2ccc(Oc3cc(CN4CCC(CC(=O)O)CC4)cc(-c4cc(Cl)cc(Cl)c4)n3)cn2)CC1` [Example 244, 2-(1-((2-(3,5-dichlorophenyl)-6-((6-(4-(2-methoxyethyl)piperazin-1-yl)pyridin-3-yl)oxy)pyridin-4-yl)methyl)piperidin-4-yl)acetic acid] were 20 nM and 8.3.
As for `COCCN1CCN(c2ncc(Oc3cc(CN4CCC(CNC(C)=O)CC4)cc(-c4cc(Cl)cc(Cl)c4)n3)cn2)CC1` [Example 245, N-((1-((2-(3,5-dichlorophenyl)-6-((2-(4-(2-methoxyethyl)piperazin-1-yl)pyrimidin-5-yl)oxy)pyridin-4-yl)methyl)piperidin-4-yl)methyl)acetamide], the EC50 in test [1] was 3.98 nM. Besides, the “furin enzyme pIC50” value in test [2] is 10.
For `NS(=O)(=O)CCCN1CCN(c2ncc(Oc3cc(CN4CCC(CC(=O)O)CC4)cc(-c4cc(Cl)cc(Cl)c4)n3)cn2)CC1` [Example 246, 2-(1-((2-(3,5-dichlorophenyl)-6-((2-(4-(3-sulfamoylpropyl)piperazin-1-yl)pyrimidin-5-yl)oxy)pyridin-4-yl)methyl)piperidin-4-yl)acetic acid] the same measures were 15.8 nM and 8.9.
For `COCCN1CCN(c2ncc(Oc3cc(CN4CCC(CC(=O)O)CC4)cc(-c4cc(Cl)cc(Cl)c4)n3)cn2)CC1` [Example 247, 2-(1-((2-(3,5-dichlorophenyl)-6-((2-(4-(2-methoxyethyl)piperazin-1-yl)pyrimidin-5-yl)oxy)pyridin-4-yl)methyl)piperidin-4-yl)acetic acid] the same measures were 31.6 nM and 8.5.
Turning to `CNC(=O)OCC1CCN(Cc2cc(Oc3cnc(N4CCN(CCC(=O)O)CC4)nc3)nc(-c3cc(Cl)cc(Cl)c3)c2)CC1` [Example 248, 3-(4-(5-((6-(3,5-dichlorophenyl)-4-((4-(((methylcarbamoyl)oxy)methyl)piperidin-1-yl)methyl)pyridin-2-yl)oxy)pyrimidin-2-yl)piperazin-1-yl)propanoic acid], the EC50 in test [1] is 25.1 nM. In addition, in test [2], the IC50 was 0.0316 nM.
Turning to `CC(=O)NCC1CCN(Cc2cc(Oc3ccc(N4CCN(CCCC(=O)O)CC4)nc3)nc(-c3cc(Cl)cc(Cl)c3)c2)CC1` [Example 249, 4-(4-(5-((4-((4-(acetamidomethyl)piperidin-1-yl)methyl)-6-(3,5-dichlorophenyl)pyridin-2-yl)oxy)pyridin-2-yl)piperazin-1-yl)butanoic acid], the EC50 in test [1] was 12.6 nM. Also, the “furin enzyme pIC50” value in test [2] amounted to 9.1.
For `COCCN1CCN(c2ccc(Oc3cc(CN4CCC(CNC(C)=O)CC4)cc(-c4cc(Cl)cc(Cl)c4)n3)cn2)CC1` [Example 250, N-((1-((2-(3,5-dichlorophenyl)-6-((6-(4-(2-methoxyethyl)piperazin-1-yl)pyridin-3-yl)oxy)pyridin-4-yl)methyl)piperidin-4-yl)methyl)acetamide] the same measures were less than 0.794 nM and 8.9.
Consider `CC(=O)NCC1CCN(Cc2cc(Oc3ccc(N4CCN(CCCS(C)(=O)=O)CC4)nc3)nc(-c3cc(Cl)cc(Cl)c3)c2)CC1` [Example 251, N-((1-((2-(3,5-dichlorophenyl)-6-((6-(4-(3-(methylsulfonyl)propyl)piperazin-1-yl)pyridin-3-yl)oxy)pyridin-4-yl)methyl)piperidin-4-yl)methyl)acetamide], for which the EC50 in test [1] is 5.01 nM. Further, the IC50 in test [2] is less than 0.158 nM.
For the molecule `NS(=O)(=O)CCCN1CCN(c2ccc(Oc3cc(CN4CCC(CC(=O)O)CC4)cc(-c4cc(Cl)cc(Cl)c4)n3)cn2)CC1` [Example 252, 2-(1-((2-(3,5-dichlorophenyl)-6-((6-(4-(3-sulfamoylpropyl)piperazin-1-yl)pyridin-3-yl)oxy)pyridin-4-yl)methyl)piperidin-4-yl)acetic acid], the EC50 in test [1] was 31.6 nM. Besides, the “furin enzyme pIC50” value in test [2] came out at 8.5.
Taken in the same sequence, the figures for `CC(=O)NCC1CCN(Cc2cc(Oc3cnc(N4CCN(CCCS(N)(=O)=O)CC4)nc3)nc(-c3cc(Cl)cc(Cl)c3)c2)CC1` [Example 253, N-((1-((2-(3,5-dichlorophenyl)-6-((2-(4-(3-sulfamoylpropyl)piperazin-1-yl)pyrimidin-5-yl)oxy)pyridin-4-yl)methyl)piperidin-4-yl)methyl)acetamide] were 2.51 nM and 9.7.
For `CNC(=O)NCC1CCN(Cc2cc(Oc3ccc(N4CCN(CCOC)CC4)nc3)nc(-c3cc(Cl)cc(Cl)c3)c2)CC1` [Example 254, 1-((1-((2-(3,5-dichlorophenyl)-6-((6-(4-(2-methoxyethyl)piperazin-1-yl)pyridin-3-yl)oxy)pyridin-4-yl)methyl)piperidin-4-yl)methyl)-3-methylurea] the same measures were 3.16 nM and 8.7.
For `CNC(=O)NCC1CCN(Cc2cc(Oc3ccc(N4CCN(CCCS(C)(=O)=O)CC4)nc3)nc(-c3cc(Cl)cc(Cl)c3)c2)CC1` [Example 255, 1-((1-((2-(3,5-dichlorophenyl)-6-((6-(4-(3-(methylsulfonyl)propyl)piperazin-1-yl)pyridin-3-yl)oxy)pyridin-4-yl)methyl)piperidin-4-yl)methyl)-3-methylurea] the same measures were 6.31 nM and 9.5.
Regarding `CNC(=O)NCC1CCN(Cc2cc(Oc3cnc(N4CCN(CCC(=O)O)CC4)nc3)nc(-c3cc(Cl)cc(Cl)c3)c2)CC1` [Example 256, 3-(4-(5-((6-(3,5-dichlorophenyl)-4-((4-((3-methylureido)methyl)piperidin-1-yl)methyl)pyridin-2-yl)oxy)pyrimidin-2-yl)piperazin-1-yl)propanoic acid], the EC50 in test [1] was 15.8 nM. Besides, the “furin enzyme pIC50” value in test [2] came to 9.5.
